# Test results taken from patent US9695155B2, “Herbicidal substituted pyrimidinyloxy benzene compounds” (E. I. DU PONT DE NEMOURS AND COMPANY, priority 2013, dated 2017).
# Tests used:
# soybean = test: Test E postemergence; assay type: in vivo, Glycine max
# Excerpt: (§1) Seeds of plant species selected from corn (Zea mays), soybean (Glycine max), velvetleaf (Abutilon theophrasti), lambsquarters (Chenopodium album), wild poinsettia (Euphorbia heterophylla), palmer pigweed (Amaranthus palmeri), waterhemp (common waterhemp, Amaranthus rudis), surinam grass (Brachiaria decumbens), large (Lg) crabgrass (Digitaria sanguinalis), Brazilian crabgrass (Digitaria horizontalis), fall panicum (Panicum dichotomiflorum), giant foxtail (Setaria faberii), green foxtail (Setaria viridis), goosegrass (Eleusine indica), johnsongrass (Sorghum halepense), ragweed (common ragweed, Ambrosia elatior), barnyardgrass (Echinochloa crus-galli), sandbur (southern sandbur, Cenchrus echinatus), arrowleaf sida (Sida rhombifolia), Italian ryegrass (Lolium multiflorum), dayflower (Virginia (VA) dayflower, Commelina virginica), field bindweed (Convolvulus arvensis), morningglory (Ipomoea coccinea), nightshade (eastern black nightshade, Solanum ptycanthum), kochia (Kochia scoparia), yellow nutsedge (Cyperus esculentus), cocklebur (common cocklebur, Xanthium strumarium), smartweed (ladysthumb smartweed, and hairy beggarticks (Bidens pilosa), were planted into a silt loam soil and treated preemergence with test chemicals formulated in a non-phytotoxic solvent mixture which included a surfactant.
# (§2) At the same time, plants from these crop and weed species and also horseweed (Canada horseweed, Conyza canadensis), waterhemp_RES1, (ALS & Triazine resistant common waterhemp, Amaranthus rudis), and waterhemp_RES2, (ALS & HPPD resistant common waterhemp, Amaranthus rudis) were planted in pots containing Redi-Earth® planting medium (Scotts Company, 14111 Scottslawn Road, Marysville, Ohio 43041) comprising spaghnum peat moss, vermiculite, wetting agent and starter nutrients were treated with postemergence applications of test chemicals formulated in the same manner. Plants ranged in height from 2 to 18 cm for postemergence treatments (1- to 4-leaf stage). Treated plants and controls were maintained in a greenhouse for 14 to 21 days, after which time all species were compared to controls and visually evaluated. Plant response ratings, summarized in Table E, are based on a scale of 0 to 100 where 0 is no effect and 100 is complete control. A dash (-) response means no test result.
# cocklebur = test: Test E preemergence; assay type: in vivo, Xanthium strumarium; conditions: for Cocklebur plant response rating: scale 0 to 100 (0 no effect, 100 complete control); for Plant response rating, Cocklebur: scale 0 to 100, 0 no effect, 100 complete control
# Excerpt: as §1, §2
smiles,measurement,setting,value
"Fc1cnc(Oc2ccccc2-n2cc(Br)cn2)nc1 [Compound 10, 2-[2-(4-bromo-1H-pyrazol-1-yl)phenoxy]-5-fluoropyrimidine]","plant response (crop injury) rating, soybean, 0-100 scale at 31 g/ha","soybean; Glycine max, post-emergence, Postemergence, 31 g ai/ha, scale 0 to 100",50%
same,"plant response (crop injury) rating, soybean, 0-100 scale at 62 g/ha","soybean; Glycine max, post-emergence, Postemergence, 62 g ai/ha, scale 0 to 100",75%
same,"plant response (crop injury) rating, soybean, 0-100 scale at 125 g/ha","soybean; Glycine max, post-emergence, Postemergence, 125 g ai/ha, scale 0 to 100",90%
same,"plant response (crop injury) rating, soybean, 0-100 scale at 250 g/ha","soybean; Glycine max, post-emergence, Postemergence, 250 g ai/ha, scale 0 to 100",95%
same,"plant response (crop injury) rating, soybean, 0-100 scale at 16 g/ha","soybean; Glycine max, post-emergence, postemergence, 16 g ai/ha, scale 0 to 100, 0 no effect, 100 complete control",30%
Clc1cnc(Oc2cccc(Br)c2-n2cc(Br)cn2)nc1 [Compound 65],"Plant response rating, Soybean","soybean; Postemergence, 31 g ai/ha, scale 0 to 100",20
same,"Plant response rating, Soybean","soybean; Postemergence, 62 g ai/ha, scale 0 to 100",50
same,"Plant response rating, Soybean","soybean; Postemergence, 125 g ai/ha, scale 0 to 100",98
same,"Plant response rating, Soybean","soybean; postemergence, 8 g ai/ha, scale 0 to 100, 0 no effect, 100 complete control",15
same,"Plant response rating, Soybean","soybean; postemergence, 16 g ai/ha, scale 0 to 100, 0 no effect, 100 complete control",20
N#Cc1cccc(Oc2ncc(F)cn2)c1-n1cc(Cl)cn1 [Compound 73],Cocklebur plant response rating,cocklebur; 16 g ai/ha,0
same,Cocklebur plant response rating,cocklebur; 31 g ai/ha,0
same,"Plant response rating, Cocklebur",cocklebur; 250 g ai/ha,25
FC(F)(F)c1cnn(-c2c(Cl)cccc2Oc2ncc(Cl)cn2)c1 [Compound 167],Cocklebur plant response rating,cocklebur; 16 g ai/ha,0
same,Cocklebur plant response rating,cocklebur; 31 g ai/ha,0
same,Cocklebur plant response rating,cocklebur; 62 g ai/ha,100
same,"Plant response rating, Cocklebur",cocklebur; 125 g ai/ha,90
